Experimental data published in patent US12016864B2, “LOX enzyme inhibiting methods and compositions” (ANOVIA BIOSCIENCES, INC., priority 2021, dated 2024).

target: T1, Recombinant human LOXL2 (lysyl oxidase like 2) (Homo sapiens, UniProt Q9Y4K0); assay: LOXL2 inhibition assay, fluorometric (cadaverine / HRP / Amplex Red); type: biochemical; conditions: recombinant human LOXL2 130 nM; 30 min preincubation at 37° C.; 2.5 mM cadaverine; read-out: Activity Range LOXL2
T1 construct: purchased R&D systems
T1 sequence (Q9Y4K0 26-774): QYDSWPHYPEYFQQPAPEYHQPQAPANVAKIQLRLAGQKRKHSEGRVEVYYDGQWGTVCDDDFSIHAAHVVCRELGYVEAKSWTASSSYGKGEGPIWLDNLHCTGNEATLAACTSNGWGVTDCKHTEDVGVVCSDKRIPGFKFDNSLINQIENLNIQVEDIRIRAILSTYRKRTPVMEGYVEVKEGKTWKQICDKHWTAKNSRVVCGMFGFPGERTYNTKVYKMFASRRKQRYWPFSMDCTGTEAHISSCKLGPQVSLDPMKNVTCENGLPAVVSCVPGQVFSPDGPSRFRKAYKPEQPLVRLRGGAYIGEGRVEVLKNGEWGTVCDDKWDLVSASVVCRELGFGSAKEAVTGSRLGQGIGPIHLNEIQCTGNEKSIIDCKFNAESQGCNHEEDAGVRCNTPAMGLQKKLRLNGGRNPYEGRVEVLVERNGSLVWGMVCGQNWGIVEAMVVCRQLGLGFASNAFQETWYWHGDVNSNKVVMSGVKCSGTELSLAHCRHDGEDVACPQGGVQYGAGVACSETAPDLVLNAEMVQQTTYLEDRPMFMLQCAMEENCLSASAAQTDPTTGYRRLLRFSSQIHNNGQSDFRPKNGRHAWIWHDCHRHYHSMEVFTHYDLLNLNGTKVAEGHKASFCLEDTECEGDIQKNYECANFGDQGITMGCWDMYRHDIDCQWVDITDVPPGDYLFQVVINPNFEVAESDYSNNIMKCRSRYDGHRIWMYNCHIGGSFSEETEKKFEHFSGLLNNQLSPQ
Description: The ability of compounds to inhibit one or more of the lysyl oxidases LOXL2 and/or LOXL3 was determined using a fluorometric assay. This assay measures the activity of lysyl oxidases by coupling the reaction with horseradish peroxidase-catalyzed […]. The activity assay protocol uses cadaverine as substrate that releases hydrogen peroxide upon transformation by the specific LOX family enzyme present in the sample. Hydrogen peroxide is in turn detected using a red fluorescence substrate for HRP-coupled reactions (Amplex Red Enzyme Assays, Thermo Scientific Fisher). This leads to increase in fluorescence that can be easily detected at Ex/Em=540/590 nm in a fluorescence microplate reader.
Recombinant human LOXL2 (lysyl oxidase like 2) and recombinant human LOXL3 (lysyl oxidase like 3) were purchased from R&D systems and assays were performed in 1.2 M urea, 50 mM sodium borate buffer pH 8.0, and 10 mM CaCl.
5 μl of freshly prepared reaction buffer were delivered to reaction wells. Compounds were resuspended in 100% DMSO at 10 mM and delivered into buffer using acoustic technology (Echo550; nanoliter range). A 3× solution of LOXL2 or LOXL3 in reaction buffer was prepared (“enzyme solution”) and 5 μL of enzyme solution was added into the reaction wells. Buffer only was added to column 1 for no protein control. Reactions were incubated for 30 minutes at 37° C. A 3× mixture of cadaverine, Amplex Red, and HRP (“Substrate/Detection Mix) was prepared and subsequently 5 μL of the mixture added to each reaction well. Progress of reactions was monitored for 60 minutes at 37° C. using Clariostar plate reader (ex 530-12, ems 600-40). For all activity assays, pan-LOX inhibitor CCT365623 (Tang et al, 2017) and LOXL2/LOXL3 inhibitor PAT-1251 (PharmaKea) were included as standards.
For the data analysis, the slope of the linear portion of the progress curve was calculated using Clariostar software. Typical analysis interval was between 8-30 min, but varied between experiments. The background-subtracted signals (No protein wells are considered as background) were converted to % activity relative to DMSO controls. Data was analyzed using GraphPad Prism 4 with “sigmoidal dose-response (variable slope)”; 4 parameters with Hill Slope. Constraints: Bottom=Constant equal to 0. Top=Must be less than 120.

| Compound | IC50 [nM] |
| --- | --- |
| NCc1ccnc(S(=O)(=O)C[C@@H]2C[C@H](c3ccccc3F)CN2S(=O)(=O)N2CCS(=O)(=O)CC2)c1 (racemic) [Example 205, cis-4-((2-(((4-(Aminomethyl)pyridin-2-yl)sulfonyl)methyl)-4-(2-fluorophenyl)pyrrolidin-1-yl)sulfonyl)thiomorpholine 1,1-dioxide 2,2,2-trifluoroacetate] | ≤ 500 |
| NCc1ccc(S(=O)(=O)C[C@@H]2C[C@H](c3ccccc3F)CN2S(=O)(=O)N2CCS(=O)(=O)CC2)s1 (racemic) [Example 209, cis-4-((2-(((5-(Aminomethyl)thiophen-2-yl)sulfonyl)methyl)-4-(2-fluorophenyl)pyrrolidin-1-yl)sulfonyl)thiomorpholine 1,1-dioxide 2,2,2-trifluoroacetate] | ≤ 500 |
| NCc1ccnc(OC[C@@H]2C[C@H](c3ccccc3F)CN2S(=O)(=O)N2CCOCC2)c1 (racemic) [Example 211, cis-(2-((4-(2-Fluorophenyl)-1-(morpholinosulfonyl)pyrrolidin-2-yl)methoxy)pyridin-4-yl)methanamine; trifluoroacetic acid] | ≤ 500 |
| NCc1ccnc(OC[C@@H]2C[C@H](c3ccccc3F)CN2S(=O)(=O)N2CCS(=O)(=O)CC2)c1 (racemic) [Example 213, cis-4-((2-(((4-(Aminomethyl)pyridin-2-yl)oxy)methyl)-4-(2-fluorophenyl)pyrrolidin-1-yl)sulfonyl)thiomorpholine 1,1-dioxide 2,2,2-trifluoroacetate] | ≤ 500 |
| NCc1cccc(OC[C@@H]2C[C@H](c3ccccc3F)CN2S(=O)(=O)N2CCOCC2)c1 (racemic) [Example 215, cis-(3-((4-(2-Fluorophenyl)-1-(morpholinosulfonyl)pyrrolidin-2-yl)methoxy)phenyl)methanamine] | 500 to 1000 |
| NCc1cccc(OC[C@@H]2C[C@H](c3ccccc3F)CN2S(=O)(=O)N2CCS(=O)(=O)CC2)c1 (racemic) [Example 217, cis-4-((2-((3-(Aminomethyl)phenoxy)methyl)-4-(2-fluorophenyl)pyrrolidin-1-yl)sulfonyl)thiomorpholine 1,1-dioxide 2,2,2-trifluoroacetate] | 500 to 1000 |
| NCc1ccnc(S(=O)(=O)C[C@@H]2C[C@H](c3ccccc3)CN(S(=O)(=O)N3CCOCC3)C2)c1 (racemic) [Example 219, cis-(2-(((1-(Morpholinosulfonyl)-5-phenylpiperidin-3-yl)methyl)sulfonyl)pyridin-4-yl)methanamine 2,2,2-trifluoroacetate] | ≤ 500 |
| NCc1ccnc(OC[C@@H]2C[C@H](c3ccccc3)CN(S(=O)(=O)N3CCOCC3)C2)c1 (racemic) [Example 220, cis-(2-((1-(Morpholinosulfonyl)-5-phenylpiperidin-3-yl)methoxy)pyridin-4-yl)methanamine 2,2,2-trifluoroacetate] | ≤ 500 |
| NCc1cccc(OC[C@@H]2C[C@H](c3ccccc3)CN(S(=O)(=O)N3CCOCC3)C2)c1 (racemic) [Example 221, cis-(3-((1-(Morpholinosulfonyl)-5-phenylpiperidin-3-yl)methoxy)phenyl)methanamine 2,2,2-trifluoroacetate] | ≤ 500 |
| NCc1ccc(S(=O)(=O)C[C@@H]2C[C@H](c3ccccc3)CN(S(=O)(=O)N3CCOCC3)C2)s1 (racemic) [Example 222, cis-(5-(((1-(Morpholinosulfonyl)-5-phenylpiperidin-3-yl)methyl)sulfonyl)thiophen-2-yl)methanamine 2,2,2-trifluoroacetate] | ≤ 500 |
| CS(=O)(=O)N1C[C@@H](c2ccccc2)C[C@H]1CS(=O)(=O)c1ccc(CN)s1 (racemic) [Example 223, cis-(5-(((1-(Methylsulfonyl)-4-phenylpyrrolidin-2-yl)methyl)sulfonyl)thiophen-2-yl)methanamine 2,2,2-trifluoroacetate] | ≤ 500 |
| NCc1ccnc(OC[C@@H]2CC(C3CCCCC3)CN2S(=O)(=O)N2CCOCC2)c1 (mixture of isomers) [Example 239RAC, (2-(((2S)-4-Cyclohexyl-1-(morpholinosulfonyl)pyrrolidin-2-yl)methoxy)pyridin-4-yl)methanamine 2,2,2-trifluoroacetate] | ≤ 500 |
| NCc1ccnc(S(=O)(=O)C[C@@H]2C[C@H](C3CCCCC3)CN(S(=O)(=O)N3CCOCC3)C2)c1 (relative stereo) [Example 230, cis-(2-(((5-Cyclohexyl-1-(morpholinosulfony1)piperidin-3-yl)methyl)sulfonyl)pyridin-4-yl)methanamine 2,2,2-trifluoroacetate] | ≤ 500 |
| NCc1ccnc(OC[C@@H]2C[C@H](C3CCCCC3)CN(S(=O)(=O)N3CCOCC3)C2)c1 (relative stereo) [Example 231, cis-(2-((5-Cyclohexyl-1-(morpholinosulfonyl)piperidin-3-yl)methoxy)pyridin-4-yl)methanamine 2,2,2-trifluoroacetate] | ≤ 500 |

The remaining lines, values ahead:

| IC50 [nM] | Compound |
| --- | --- |
| ≤ 500 | NCc1ccnc(S(=O)(=O)C[C@H]2C[C@H](c3ccccc3)CN(S(=O)(=O)N3CCOCC3)C2)c1 (racemic) [Example 219T, trans-(2-(((1-(Morpholinosulfonyl)-5-phenylpiperidin-3-yl)methyl)sulfonyl)pyridin-4-yl)methanamine 2,2,2-trifluoroacetate] |
| ≤ 500 | CS(=O)(=O)N1C[C@@H](c2ccccc2)C[C@@H]1CS(=O)(=O)c1ccc(CN)s1 (racemic) [Example 223T, trans-(5-(((1-(Methylsulfonyl)-4-phenylpyrrolidin-2-yl)methyl)sulfonyl)thiophen-2-yl)methanamine 2,2,2-trifluoroacetate] |
| ≤ 500 | NCc1ccnc(OC[C@H]2C[C@H](C3CCCCC3)CN(S(=O)(=O)N3CCS(=O)(=O)CC3)C2)c1 (racemic) [Example 235T, trans-4-((3-(((4-(Aminomethyl)pyridin-2-yl)oxy)methyl)-5-cyclohexylpiperidin-1-yl)sulfonyl)thiomorpholine 1,1-dioxide 2,2,2-trifluoroacetate] |
| 500 to 1000 | NCc1ccnc(OC[C@H]2C[C@H](c3ccccc3)CN(S(=O)(=O)N3CCOCC3)C2)c1 (relative stereo) [Example 220T, trans-(2-((1-(Morpholinosulfonyl)-5-phenylpiperidin-3-yl)methoxy)pyridin-4-yl)methanamine 2,2,2-trifluoroacetate] |
| ≤ 500 | NCc1cccc(OC[C@H]2C[C@H](c3ccccc3)CN(S(=O)(=O)N3CCOCC3)C2)c1 (relative stereo) [Example 221T, trans-(3-((1-(Morpholinosulfonyl)-5-phenylpiperidin-3-yl)methoxy)phenyl)methanamine 2,2,2-trifluoroacetate] |
| ≤ 500 | NCc1ccc(S(=O)(=O)C[C@H]2C[C@H](c3ccccc3)CN(S(=O)(=O)N3CCOCC3)C2)s1 (relative stereo) [Example 222T, trans-(5-(((1-(Morpholinosulfonyl)-5-phenylpiperidin-3-yl)methyl)sulfonyl)thiophen-2-yl)methanamine 2,2,2-trifluoroacetate] |
| ≤ 500 | NCc1ccnc(S(=O)(=O)C[C@H]2C[C@H](C3CCCCC3)CN(S(=O)(=O)N3CCOCC3)C2)c1 (relative stereo) [Example 230T, trans-(2-(((5-Cyclohexyl-1-(morpholinosulfonyl)piperidin-3-yl)methyl)sulfonyl)pyridin-4-yl)methanamine 2,2,2-trifluoroacetate] |
